Laboratory results as given in patent US7517657B2, “Peptides for detecting anti-double stranded DNA antibody and uses thereof” (Albert Einstein College of Medicine of Yeshiva University, priority 1995, dated 2009).

Columns and labels:
R4A binding to dsDNA = experiment: Peptide inhibition of R4A binding to dsDNA by ELISA; design: species or system mouse; conditions: fluid phase inhibitor, FIG. 3, FIG. 4
Procedure: FIG. 3 depicts peptide inhibition of R4A (1 μg/ml) binding to calf thymus double stranded DNA by Enzyme Linked ImmunoSorbent Assay.
FIG. 4 sets forth a graph representing DWEYS (L and D peptides) (SEQ ID NO:2) inhibition of R4A binding to dsDNA. IMMULON® II plates were coated overnight with 100 μg/ml salmon sperm dsDNA. R4A at a final concentration of 5 μg/ml was incubated at varying concentrations of L or D DWEYS (SEQ ID NO:2) and transferred to the plate precoated with dsDNA. After a 2-hr incubation at 37° C., the plates were washed, and alkaline phosphotase-linked goat anti-mouse IgG2b antibody was added for 1 hour at 37° C. OD after addition of substrate was monitored at 405 nm.

[1] = test system: production of anti-dsDNA antibodies; experiment: Immunization of nonautoimmune BALB/c mice with peptide in complete Freund's adjuvant; type: in vivo; conditions: unpublished work
Source text: It is also noteworthy that both the R4A and 52b3 peptides have aromatic residues, tryptophan and tyrosine. […] This apparent difference in specificity is consistent with the finding that they bind distinct peptides. It is also noteworthy that both the R4A and 52b3 consensus motifs have aromatic residues, tryptophan and tyrosine. It is tempting to speculate that the negatively charged aspartate and glutamate residues are analogous to phosphate groups, the aromatic tryptophan residues are analogous to the pentose sugar backbone, and the tyrosine and serine residues are analogous to the hydroxyl groups attached to the pentose moiety in the DNA molecule, thus explaining why these peptides are mimics of DNA. One potential utility of identifying peptide mimotopes for dsDNA is to try to determine if the actual eliciting antigen for production of these antibodies or target antigen for deposition in kidneys might be a protein molecule. […] It is interesting to speculate whether the murine homolog of chicken collagen XIV also has a splice variant containing the same or highly homologous peptide sequence that would be recognized by the R4A antibody.

## Asp-Trp-Glu-Tyr-Ser (DWEYS; printed: Asp-Trp-Glu-Tyr-Ser)
R4A binding to dsDNA
  Inhibition of R4A binding to dsDNA: inhibited dsDNA binding by the appropriate antibody only
[1]
  Production of anti-dsDNA antibodies after immunization: leads to production of anti-dsDNA antibodies
